Data as given in patent US20230122540A1, “SYSTEMS AND METHODS TO TRACK THE EVOLUTION OF SINGLE CELLS” (Genentech, Inc., priority 2020, published 2023).

Legend:
Assay type in all cases: cell-based, human
[1] = system: ATF4, CHOP, GADD34; test: qRT-PCR of pro-death genes downstream of ER stress; details: PC9 and NCI-H1975 cells, day three
Protocol: RNA extraction and qRT-PCR: RNA was extracted using Qiagen RNeasy Plus kit following manufacturer's instruction. RNA was reverse transcribed using High-Capacity cDNA Reverse Transcription Kit (Thermo Fisher Scientific Cat. No. 4368814). qPCRs were performed using TaqMan™ Fast Advanced Master Mix (Thermo Fisher Scientific Cat. No. 4444557) on ABI QuantStudio 7 Flex Real-Time PCR Systems. HPRT1 was used as the internal control to quantify relative gene expression levels. Taqman probes were obtained from Thermo Fisher Scientific (Cat. No. 431182, 4448490). These probes were used in the study: ATF4 Hs00909569_g1, DDIT3/CHOP Hs00358796_g1, PPP1R15A/GADD34 Hs00169585_m1, SLC7A5 Hs01001183_m1, ETV4 Hs00385910_m1, SPRY4 Hs00540086_m1, DUSP6 Hs04329643_s1, HPRT1 Hs02800695_m1.

[2] = system: PC9 cells; test: Caspase-Glo 3/7 cell death assay, EGFRi+CCT020312; details: Caspase-Glo 3/7, 24 h post-treatment
Protocol: Cell viability and cell death quantification: For experiments shown in FIGS. 24C, 27D, the indicated cells were seeded at desired densities in replicates in 24-well plates and allowed to attach overnight. The following day cells were treated with the indicated compounds. Media containing the appropriate compounds was replenished every 48 hours. At each media change, cell viabilities were quantified using CellTiter-Glo Luminescent Cell Viability Assay (Promega, G7572). For experiments shown in FIG. 191 and FIG. 29D, PC9 cells were seeded in replicates in 96-well plates and allowed to attach overnight. The following day cells were treated with the indicated compounds or compound combinations at the indicated concentrations. Induction of cell death was quantified 24 h post-treatment using Caspase-Glo 3/7 Assay System (Promega, G8093) and cell survival were measured 72 h post-treatment using CellTiter-Glo Luminescent Cell Viability Assay (Promega, G7572). CCT020312 was obtained from EMD Millipore (324879).

[3] = system: NCI-H1975 cells; test: Clonogenic / CellTiter-Glo assay with allosteric degraders; details: compared to osimertinib
Protocol: Clonogenic assay: Cells were seeded at desired densities in two to three replicates in 6-well plates and allowed to attach overnight. The following day cells were treated with the indicated compounds. Media containing the appropriate compounds was replenished every 48-72 hours. At the end of the assay, the cells were washed once with PBS, fixed and stained with crystal violet solution (Sigma Aldrich, HT90132) for 20 minutes, washed with water, and allowed to dry before scanning. For experiments shown in FIG. 18E erlotinib concentration were determined to match the cell viability effect to 1 μM GNE-069 in each cell line, so that 1 μM erlotinib was applied to PC-9 and HCC2935, and 100 nM erlotinib was applied to HCC4006 and HCC827. […]
Cell viability and cell death quantification: For experiments shown in FIGS. 24C, 27D, the indicated cells were seeded at desired densities in replicates in 24-well plates and allowed to attach overnight. […] At each media change, cell viabilities were quantified using CellTiter-Glo Luminescent Cell Viability Assay (Promega, G7572). […] Induction of cell death was quantified 24 h post-treatment using Caspase-Glo 3/7 Assay System (Promega, G8093) and cell survival were measured 72 h post-treatment using CellTiter-Glo Luminescent Cell Viability Assay (Promega, G7572). […]

SMILES: CCN(CC)CCC(=O)N1N=C(c2c(-c3ccccc3)c3cc(Br)ccc3[nH]c2=O)CC1c1ccc(Br)cc1 (stereo not drawn) [CCT020312]
- induction of ISR genes in combination with erlotinib or osimertinib [1]: further boosted induction of ISR genes by erlotinib and osimertinib
- cell death induction in combination with erlotinib or osimertinib [2]: enhanced cell death induction

SMILES: O=C(Nc1nccs1)C(c1cc(F)ccc1O)N1Cc2ccccc2C1=O (stereo not drawn) [EAI-045]
- single agent anti-growth activity [3]: very modest single agent activity
